From patent publication US12649750B2, “Macrocyclic compounds, compositions, and methods of using thereof” (Sionna Therapeutics Inc., priority 2022, dated 2026)

How the values were obtained:
[1] = biological target: T1, CFTR (Homo sapiens, UniProt P13569, DEL508-508); assay: TECC24 AUC fold over DMSO @10 μM, CFTR-mediated transepithelial chloride transport in CF-HBE cells; assay type: cell-based; settings: test agent AUC divided by DMSO vehicle AUC, primary CF-HBE cells, ΔF508 homozygous donor, 48 hours incubation
T1 construct: Primary human bronchial epithelial cells from a ΔF508 homozygous CF donor; host or cells: primary human bronchial epithelial cells (CF-HBE), ΔF508 homozygous donor
T1 sequence (P13569 with tags, fused parts or gaps DEL508-508): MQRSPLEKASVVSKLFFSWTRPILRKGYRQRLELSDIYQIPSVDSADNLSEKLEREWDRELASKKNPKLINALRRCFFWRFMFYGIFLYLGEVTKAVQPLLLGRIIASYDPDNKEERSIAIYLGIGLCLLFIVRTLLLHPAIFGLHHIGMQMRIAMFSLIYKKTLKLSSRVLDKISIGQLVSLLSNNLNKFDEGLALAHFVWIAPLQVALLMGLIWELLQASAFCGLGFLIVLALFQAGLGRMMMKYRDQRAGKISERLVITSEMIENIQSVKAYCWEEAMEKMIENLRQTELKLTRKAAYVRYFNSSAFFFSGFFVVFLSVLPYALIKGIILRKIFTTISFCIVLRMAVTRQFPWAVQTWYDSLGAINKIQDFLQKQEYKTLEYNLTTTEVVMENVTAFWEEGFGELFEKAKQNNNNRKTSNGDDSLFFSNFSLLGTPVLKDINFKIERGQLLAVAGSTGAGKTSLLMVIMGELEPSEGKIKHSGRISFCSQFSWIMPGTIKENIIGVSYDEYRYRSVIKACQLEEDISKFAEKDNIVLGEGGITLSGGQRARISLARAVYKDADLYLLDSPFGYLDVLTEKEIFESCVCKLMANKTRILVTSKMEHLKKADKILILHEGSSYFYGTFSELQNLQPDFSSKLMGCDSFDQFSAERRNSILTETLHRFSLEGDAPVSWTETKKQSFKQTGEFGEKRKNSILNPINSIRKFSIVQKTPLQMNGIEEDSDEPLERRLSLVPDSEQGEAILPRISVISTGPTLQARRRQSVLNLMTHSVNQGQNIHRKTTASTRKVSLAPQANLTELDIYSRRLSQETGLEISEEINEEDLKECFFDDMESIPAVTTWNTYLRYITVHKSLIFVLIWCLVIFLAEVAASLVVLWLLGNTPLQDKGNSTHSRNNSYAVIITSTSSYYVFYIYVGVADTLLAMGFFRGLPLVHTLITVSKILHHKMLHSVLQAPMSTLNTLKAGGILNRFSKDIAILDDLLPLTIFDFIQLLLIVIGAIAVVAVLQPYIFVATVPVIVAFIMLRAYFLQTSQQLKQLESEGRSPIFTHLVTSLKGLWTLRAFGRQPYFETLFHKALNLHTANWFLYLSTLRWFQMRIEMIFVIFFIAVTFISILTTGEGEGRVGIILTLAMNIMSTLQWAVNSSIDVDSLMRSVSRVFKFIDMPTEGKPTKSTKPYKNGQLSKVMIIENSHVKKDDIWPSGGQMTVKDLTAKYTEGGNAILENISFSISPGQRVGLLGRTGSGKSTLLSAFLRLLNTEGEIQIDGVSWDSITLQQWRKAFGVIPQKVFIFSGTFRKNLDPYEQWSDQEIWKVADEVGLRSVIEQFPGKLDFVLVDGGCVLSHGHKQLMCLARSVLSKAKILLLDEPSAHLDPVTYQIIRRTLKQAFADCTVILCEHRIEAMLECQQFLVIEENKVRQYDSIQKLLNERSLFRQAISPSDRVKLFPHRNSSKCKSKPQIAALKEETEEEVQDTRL
Procedure: Example 387. TECC24 AUC Fold Over DMSO @10 μM
The effects of a test agent on CFTR-mediated transepithelial chloride transport is measured using TECC24 recording analysis. Test agents are solubilized in DMSO. Solubilized test agents are mixed with incubation medium containing DMEM/F12, Ultroser G (2%; Crescent Chemical, catalog #67042), Hyclone Fetal Clone II (2%; GE Healthcare, catalog #SH30066.02), bovine brain extract (0.25%; Lonza, catalog #CC-4098), insulin (2.5 μg/mL), IL-13 (10 ng/mL), hydrocortisone (20 nM), transferrin (2.5 μg/mL), triiodothyronine (500 nM), ethanolamine (250 nM), epinephrine (1.5 μM), phosphoethanolamine (250 nM), and retinoic acid (10 nM). Primary human bronchial epithelial cells from a ΔF508 homozygous CF donor (CF-HBE cells; from University of North Carolina Cystic Fibrosis Tissue Procurement Center), grown on Transwell HTS 24-well cell culture inserts (Costar, catalog #3378), are exposed to test agents or controls dissolved in incubation medium. The CF-HBE cells are cultured at 36.5° C. for 48 hours before TECC24 recordings are performed in the presence or absence of test agent, a positive control or vehicle (DMSO).
Following incubation, the transwell cell culture inserts containing the test agent or control-treated CF-HBE cells are loaded onto a TECC24 apparatus (TECC v7 or MTECC v2; EP Design) to record the transepithelial voltage (VT) and resistance (TEER) using 4 AgCl electrodes per well configured in current-clamp mode. The apical and basolateral bath solutions both contain (in mM) 140 NaCl, 5 KCl, 2 CaCl2, 1 MgCl2, 10 Hepes, and 10 glucose (adjusted to pH 7.4 with NaOH). To inhibit basal Na+ absorption, the ENaC inhibitor benzamil (10 μM) is added to the bath. Then, the adenylate cyclase activator, forskolin (10 μM), is added to the bath to activate CFTR. The forskolin-stimulated Cl— transport is halted by addition of CFTR inhibitor-172 (20 μM) to the bath at the end of the experiment to confirm specificity. VT and TEER recordings are digitally acquired at routine intervals using TECC or MTECC software (EP Design). VT and TEER are transformed into equivalent transepithelial Cl— current (IEQ), and the Area Under the Curve (AUC) of the IEQ time course between forskolin and CFTR inhibitor-172 addition is generated using Excel (Microsoft). Efficacy is expressed as the ratio of the test agent AUC divided by vehicle AUC. EC50s based on AUC are generated using the non-linear regression log(agonist) vs. response function in Prism software (Graphpad) with HillSlope fixed=1.
If a test agent increases the AUC of the forskolin-stimulated IEQ relative to vehicle in CF-HBE cells, and this increase is inhibited by CFTR inhibitor-172, then the test agent is considered a CFTR corrector. TECC assay efficacy is expressed as the ratio of the test agent AUC divided by DMSO vehicle AUC. As set forth in Table 2 below, a TECC value less than 12 is marked “A”; a value between 12-20 is marked “B”; a value between 20 and 80 is marked “C”. […]

[2] = biological target: T2, NBD1 (Homo sapiens, UniProt P13569); assay: Aggregation analysis using differential static light scattering (DSLS), thermal stability of NBD1 (ΔTagg); assay type: binding; settings: ΔTagg versus DMSO control, NBD1 0.2 mg/ml
T2 construct: Purified recombinant NBD1 was produced using previously described methods; made in house
T2 sequence (P13569 423-646 limits assumed): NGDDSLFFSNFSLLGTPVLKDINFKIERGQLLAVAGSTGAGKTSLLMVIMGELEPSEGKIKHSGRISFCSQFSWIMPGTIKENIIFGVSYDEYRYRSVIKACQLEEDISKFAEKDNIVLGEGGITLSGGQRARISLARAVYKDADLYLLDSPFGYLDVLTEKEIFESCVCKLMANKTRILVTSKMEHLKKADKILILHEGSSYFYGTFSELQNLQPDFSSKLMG
Outline: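 Differential static light scattering read from 25° C. to 70° C. every 0.5° C., ramp 1° C./min, on recombinant NBD1 (0.2 mg/ml; Tris/NaCl/MgCl2 buffer with 2 mM ATP, 2 mM DTT, pH 7.6, 1% glycerol) plus compound. Reported ΔTagg subtracts averaged DMSO Tagg from inflection-point Tagg; categories A ≤5, B >5-10, C >10-25° C.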

Row | SMILES | TECC (AUC, 10 μM) [1] | DSLS 3D (100 μM ΔT) [2]
1 | CC1(C)CCCC(c2cccc(CCC(=O)O)c2)n2ncc(C#N)c2-c2cc(ccc2F)Oc2c(F)cc3[nH]ccc3c2CCS(=O)(=O)C1 (racemic) [Compound 22A, 3-[3-(3-cyano-23,29-difluoro-11,11-dimethyl-13,13-dioxo-25-oxa-13lambda6-thia-5,6,20-triazapentacyclo[24.3.1.02,6.016,24.017,21]triaconta-1(30),2,4,16,18,21,23,26,28-nonaen-7-yl)phenyl]propanoic acid] | A (a TECC value less than 12 is marked “A”) | A (an ΔTagg value less than or equal to 5 °C is marked “A”)
2 | Cn1nc2nc1-c1cc(ccc1F)Oc1c(F)cc3[nH]ccc3c1CCS(=O)(=O)CC(C)(C)CCCC2(C)c1cccc(CCC(=O)O)c1 (racemic) [Compound 56, 3-[3-(22,28-Difluoro-3,6,10,10-tetramethyl-12,12-dioxo-24-oxa-12lambda6-thia-3,4,19,30-tetrazapentacyclo[23.3.1.12,5.015,23.016,20]triaconta-1(29),2(30),4,15,17,20,22,25,27-nonaen-6-yl)phenyl]propanoic acid] | A (a TECC value less than 12 is marked “A”) | C (a value greater than 10 °C and less than or equal to 25 °C is marked “C”)
3 | Cc1cn2nc1-c1cc(ccc1F)Oc1c(F)cc3[nH]ccc3c1CCS(=O)(=O)CC(C)(C)CCCC2c1cccc(CCC(=O)O)c1 (racemic) [Compound 66, 3-[3-(22,28-Difluoro-3,10,10-trimethyl-12,12-dioxo-24-oxa-12λ6-thia-5,19,30-triazapentacyclo[23.3.1.12,5.015,23.016,20]triaconta-1(29),2(30),3,15,17,20,22,25,27-nonaen-6-yl)phenyl]propanoic Acid] | B (a value between 12-20 is marked “B”) | C (a value greater than 10 °C and less than or equal to 25 °C is marked “C”)
4 | Cn1nc2nc1-c1cc(ccc1F)Oc1c(F)cc3[nH]ccc3c1CCS(=O)(=O)/C=C(\F)C(C)(C)CCC2(C)c1cccc(CCC(=O)O)c1 (racemic) [Compound 94, 3-[3-[(10Z)-10,22,28-Trifluoro-3,6,9,9-tetramethyl-12,12-dioxo-24-oxa-12lambda6-thia-3,4,19,30-tetrazapentacyclo-[23.3.1.12,5.015,23.016,20]triaconta-1(29),2(30),4,10,15,17,20,22,25,27-decaen-6-yl]phenyl]propanoic Acid] | A (a TECC value less than 12 is marked “A”) | A (an ΔTagg value less than or equal to 5 °C is marked “A”)
5 | Cn1nc2nc1-c1cc(ccc1F)Cc1c(F)cc3[nH]ccc3c1CCS(=O)(=O)CC(C)(C)CCCC2(C)c1cccc(/C=C/C(=O)O)c1 (racemic) [Compound 167, (E)-3-[3-(22,28-Difluoro-3,6,10,10-tetramethyl-12,12-dioxo-12λ6-thia-3,4,19,30-tetrazapentacyclo[23.3.1.12,5.015,23.016,20]triaconta-1(29),2(30),4,15,17,20,22,25,27-nonaen-6-yl)phenyl]prop-2-enoic Acid] | A (a TECC value less than 12 is marked “A”) | C (a value greater than 10 °C and less than or equal to 25 °C is marked “C”)
6 | Cn1nc2nc1-c1cc(ccc1F)Oc1c(F)cc3[nH]ccc3c1CCS(=O)(=O)CC(C)(C)CCCC2(C)c1cccc(/C=C2\NC(=O)NC2=O)c1 (racemic) [Compound 174, (5Z)-5-[[3-(22,28-Difluoro-3,6,10,10-tetramethyl-12,12-dioxo-24-oxa-12λ6-thia-3,4,19,30-tetrazapentacyclo[23.3.1.12,5.015,23.016,20]-triaconta-1(29),2(30),4,15,17,20,22,25,27-nonaen-6-yl)phenyl]methylene]imidazolidine-2,4-dione] | A (a TECC value less than 12 is marked “A”) | C (a value greater than 10 °C and less than or equal to 25 °C is marked “C”)
7 | Cn1nc2nc1-c1cc(ccn1)Oc1c(F)cc3[nH]ccc3c1CCS(=O)(=O)CC(C)(C)CCC[C@]2(C)c1cccc(CCC(=O)O)c1 (racemic) [Compound 228, 3-[3-[rac-(6R)-22-fluoro-3,6,10,10-tetramethyl-12,12-dioxo-24-oxa-12λ6-thia-3,4,19,28,30-pentazapentacyclo[23.3.1.12,5.015,23.016,20]triaconta-1(29),2(30),4,15,17,20,22,25,27-nonaen-6-yl]phenyl]propanoic acid] | C (a value between 20 and 80 is marked “C”) | C (a value greater than 10 °C and less than or equal to 25 °C is marked “C”)
8 | C[C@@H](Cc1cccc([C@@]2(C)CCCC(C)(C)CS(=O)(=O)CCc3c(c(F)c(F)c4[nH]ccc34)Sc3ccc(F)c(c3)-c3nc2nn3C)c1)C(=O)O (racemic) [Compound 259, (2S)-2-methyl-3-[3-[(6R)-21,22,28-trifluoro-3,6,10,10-tetramethyl-12,12-dioxo-12λ6,24-dithia-3,4,19,30-tetrazapentacyclo[23.3.1.12,5.015,23.016,20]triaconta-1(29),2(30),4,15,17,20,22,25,27-nonaen-6-yl]phenyl]propanoic Acid] | C (a value between 20 and 80 is marked “C”) | C (a value greater than 10 °C and less than or equal to 25 °C is marked “C”)
9 | Cn1nc2nc1-c1cc(ccn1)Cc1c(F)cc3[nH]ccc3c1CCS(=O)(=O)CC(C)(C)CCC[C@]2(C)c1cccc(CC(C)(C)C(=O)O)c1 (racemic) [Compound 295, 2,2-dimethyl-3-[3-[rac-(6R)-22-fluoro-3,6,10,10-tetramethyl-12,12-dioxo-12λ6-thia-3,4,19,28,30-pentazapentacyclo[23.3.1.12,5.015,23.016,20]triaconta-1(29),2(30),4,15,17,20,22,25,27-nonaen-6-yl]phenyl]propanoic Acid] | B (a value between 12-20 is marked “B”) | B (a value above 5 °C and less than or equal to 10 °C is marked “B”)
10 | [2H]C([2H])([2H])n1nc2nc1-c1cc(ccc1F)Oc1c(F)cc3[nH]ccc3c1CCS(=O)(=O)CC(C)(C)CCCC2(C)c1cccc(OCC(=O)O)c1 (single isomer, unassigned) [Compound 1A, 2-[3-[22,28-Difluoro-6,10,10-trimethyl-12,12-dioxo-3-(trideuteriomethyl)-24-oxa-12λ^6-thia-3,4,19,30-tetrazapentacyclo[23.3.1.1^2,5.0^15,23.0^16,20]triaconta-1(29),2(30),4,15,17,20,22,25,27-nonaen-6-yl]phenoxy]acetic Acid] | C (a value between 20 and 80 is marked “C”) | C (a value greater than 10 °C and less than or equal to 25 °C is marked “C”)
11 | [2H]C([2H])([2H])n1nc2nc1-c1cc(ccc1F)Oc1c(F)cc3[nH]ccc3c1CCS(=O)(=O)CC(C)(C)CCCC2(C)c1cccc(OCC(=O)O)c1 (single isomer, unassigned) [Compound 1B, 2-[3-[22,28-Difluoro-6,10,10-trimethyl-12,12-dioxo-3-(trideuteriomethyl)-24-oxa-12λ^6-thia-3,4,19,30-tetrazapentacyclo[23.3.1.1^2,5.0^15,23.0^16,20]triaconta-1(29),2(30),4,15,17,20,22,25,27-nonaen-6-yl]phenoxy]acetic Acid] | A (a TECC value less than 12 is marked “A”) | A (an ΔTagg value less than or equal to 5 °C is marked “A”)
